Patent US6540991B2, “Stabilized active materials” (3M Innovative Properties Company, priority 2001, dated 2003)

Assay: typical duration of codlemone in the intended environment (stabilization of insect pheromone)
Type: physicochemical
Details: dissipation into the intended environment; codling moth pheromone, nonstabilized vs stabilized with 2,2′-Methylenebis(6-t-butyl-p-cresol)
Description: Because the insect pheromone can be provided in a stabilized format, a long lasting delivery system may be engineered to provide slow release over a long duration of time. The stabilized format allows for a slow release from a single application without spiking as may be obtainable from multiple applications. “Spiking” as used herein may be triggered by instantaneous or short-term release of the active agents from the shell. Since a mating cycle of a given insect pest may last up to 4-6 weeks in length, the slow release of an insect pheromone may be desirable to provide effective control of insect mating over the duration. Thus, the present invention may be used to control the release rate of insect pheromones thereby effectively controlling and disrupting the mating behavior of the species in a particular intended environment. For example, an insect pheromone for codling moth can be made to steadily dissipate into the intended environment over the duration of a mating cycle for codling moth. A typical duration for a nonstabilized codlemone, the insect pheromone for the codling moth is less than 1 week, as against about 6 weeks for codlemone stabilized according to the present invention.

C/C=C/C=C/CCCCCCCO [nonstabilized codlemone, E,E-8,10 C12 alcohol]
typical duration: less than 1 week
